# Data from PMC10796410 (Cancer Chemotherapy and Pharmacology, 2023).
# Several values for one entry are separate records, joined by “and”; a condition that tells them apart may be missing. Identical values can stand only once. Like-named read-outs stand apart in the source and are kept apart here.
# Key:
# [1] = Plasma pharmacokinetics of metformin in rats after a single oral dose, alone or with olaparib (HPLC-UV, non-compartmental); type: in vivo, Wistar rats; conditions: for Cmax / k el: po; for Cmax / k el / Cl/F / ka / t0.5: rat plasma, n = 8, mean ± SD
# Experimental: Adult male Wistar rats (weight 380–530 g) were used in the study. The animals were maintained under standard breeding conditions with a 12/12 h light–dark cycle (lights on at 06.00, lights off at 18.00) at constant room temperature (23 ± 2 °C), relative humidity of 55 ± 10% and given ad libitum access to food and water. The animals were allowed to acclimatize for a week before the beginning of the experiments. The rats were divided into three groups. […] The solution for oral metformin administration was prepared in saline at a single dose of 100 mg/kg [15]. Drugs were orally administered to rats by gavage between 7:00 a.m. and 8:00 a.m. Before administration (0 h) and at different time intervals after the administration, i.e., 0.085, 0.5, 1, 2, 4, 6, 8, 10, and 24 h [16], blood was collected from the tail vein of each rat into 1.5-ml heparinized Eppendorf (EP) tubes. The blood samples were centrifuged at 5000 rpm for 10 min, and the plasma was transferred to new centrifuge tubes and then stored at – 80 °C.
# High-performance liquid chromatography (HPLC) with ultraviolet (UV) detection (HPLC Waters 2695 Separations Module with autosampler, Waters 2487 Dual Absorbance Detector) [17] after a liquid–liquid extraction with a mixture of 1-butanol:n-heptane (50:50, v/v) was applied to measure the concentrations of metformin in the rats’ plasma. An analytical Symmetry® C8 column (250 × 4.6 mm, 5.0 μm; Waters Corporation, Milford, MA, USA) and a mobile phase consisting of 0.1 M ammonium formate solution, pH 6.3 with an isocratic flow rate of 1.0 ml/min were used. The volume of each injection was 20 µl, and the retention times for metformin and internal standard (acetaminophen) were 3.5 and 11.2 min, respectively.
# The maximum plasma concentration (Cmax) and the time to reach the Cmax (tmax) were obtained directly from the measured values. All of the above-mentioned parameters underwent statistical analysis.
# [2] = tested on: epithelial ovarian cancer cell lines; conditions: drugs given separately or co-administered; cited from earlier work
# [3] = male, Wistar, rat, plasma, 100 mg/kg, IIMET: metformin 100 mg/kg b.w. oral single dose alone
# [4] = male, Wistar, rat, plasma, 100 mg/kg, IMET+OLA: metformin 100 mg/kg b.w. + olaparib 100 mg/kg b.w. oral single dose
# [5] = metformin, rats, with olaparib / alone
# [6] = IIMET: metformin 100 mg/kg b.w. oral single dose alone
# [7] = IMET+OLA: metformin 100 mg/kg b.w. + olaparib 100 mg/kg b.w. oral single dose
# [8] = rats, co-administered with olaparib vs. metformin alone
# [9] = rats, concomitant olaparib and metformin
structure (smiles),measurement,setting,value
"CN(C)C(=N)N=C(N)N [metformin, Metformin]",concentration at 0.083 h,"[1]; male, Wistar, rat, plasma, oral, 100 mg/kg, t 0.083 h, IIMET (metformin alone), group mean, read-out: Cmet, S (group mean)",146 ng/mL
same,concentration at 1 h,"[1]; male, Wistar, rat, plasma, oral, 100 mg/kg, t 1 h, IIMET (metformin alone), group mean, read-out: Cmet, S (group mean)",397 ng/mL
same,concentration at 2 h,"[1]; male, Wistar, rat, plasma, oral, 100 mg/kg, t 2 h, IIMET (metformin alone), group mean, read-out: Cmet, S (group mean)",285 ng/mL
same,concentration at 6 h,"[1]; male, Wistar, rat, plasma, oral, 100 mg/kg, t 6 h, IIMET (metformin alone), group mean, read-out: Cmet, S (group mean)",156 ng/mL
same,concentration at 8 h,"[1]; male, Wistar, rat, plasma, oral, 100 mg/kg, t 8 h, IIMET (metformin alone), group mean, read-out: Cmet, S (group mean)",163 ng/mL
same,concentration at 10 h,"[1]; male, Wistar, rat, plasma, oral, 100 mg/kg, t 10 h, IIMET (metformin alone), group mean, read-out: Cmet, S (group mean)",133 ng/mL
same,concentration at 24 h,"[1]; male, Wistar, rat, plasma, oral, 100 mg/kg, t 24 h, IIMET (metformin alone), group mean, read-out: Cmet, S (group mean)",112 ng/mL
same,concentration at 0.083 h,"[1]; male, Wistar, rat, plasma, oral, t 0.083 h, IMET+OLA (metformin and olaparib), group mean, read-out: Cmet, S (group mean)",140 ng/mL
same,concentration at 0.5 h,"[1]; male, Wistar, rat, plasma, oral, t 0.5 h, IMET+OLA (metformin and olaparib), group mean, read-out: Cmet, S (group mean)",590 ng/mL
same,concentration at 1 h,"[1]; male, Wistar, rat, plasma, oral, t 1 h, IMET+OLA (metformin and olaparib), group mean, read-out: Cmet, S (group mean)",968 ng/mL
same,concentration at 2 h,"[1]; male, Wistar, rat, plasma, oral, t 2 h, IMET+OLA (metformin and olaparib), group mean, read-out: Cmet, S (group mean)",858 ng/mL
same,concentration at 4 h,"[1]; male, Wistar, rat, plasma, oral, t 4 h, IMET+OLA (metformin and olaparib), group mean, read-out: Cmet, S (group mean)",734 ng/mL
same,concentration at 6 h,"[1]; male, Wistar, rat, plasma, oral, t 6 h, IMET+OLA (metformin and olaparib), group mean, read-out: Cmet, S (group mean)",626 ng/mL
same,concentration at 10 h,"[1]; male, Wistar, rat, plasma, oral, t 10 h, IMET+OLA (metformin and olaparib), group mean, read-out: Cmet, S (group mean)",334 ng/mL
same,concentration at 24 h,"[1]; male, Wistar, rat, plasma, oral, t 24 h, IMET+OLA (metformin and olaparib), group mean, read-out: Cmet, S (group mean)",182 ng/mL
same,Cmax,[1]; [3],450 ± 290 ng/mL
same,k el,[1]; [3],8.89e-06 s⁻¹
same,Cmax,[1]; [4],1250 ± 800 ng/mL
same,k el,[1]; [4],1.5e-05 s⁻¹
same,IMET+OLA/IIMET ratio for AUC0-t,[1]; [5],2.59
same,IMET+OLA/IIMET ratio for AUC0→∞,[1]; [5],1.74
same,IMET+OLA/IIMET ratio for Cmax,[1]; [5],2.78
same,Cl/F,[1]; [6],6.31 ± 1.48 l/h and 6.31 ± 1.48 (23.5) l/h
same,ka,[1]; [6],0.41 ± 0.25 (62.4) h^−1
same,t0.5,[1]; [6],26.54 ± 14.52 (54.7) h
same,Cl/F,[1]; [7],3.57 ± 1.26 l/h and 3.57 ± 1.26 (35.34) l/h
same,ka,[1]; [7],0.59 ± 0.17 (29.7) h^−1
same,t0.5,[1]; [7],14.95 ± 6.04 (40.4) h
same,decrease of metformin Cl/F in the presence of olaparib,[1]; [8],43.4%
same,decrease of metformin Vd/F in the presence of olaparib,[1]; [8],65.1%
same,increase of metformin AUC0-t when co-administered with olaparib,[1]; [8],159.8%
same,increase of metformin AUC0-∞ when co-administered with olaparib,[1]; [8],74.1%
same,increase of metformin Cmax in the presence of olaparib,[1]; [8],177.8%
same,increase of metformin AUC on concomitant olaparib,[1]; [9],2.6 times
same,increase of metformin Cmax on concomitant olaparib,[1]; [9],2.8 times
same,Cmet,"[1]; t 0.083 h, IIMET (metformin alone), individual rats 17-24",0.139 µg/mL and 0.07 µg/mL and 0.274 µg/mL and 0.12 µg/mL and 0.149 µg/mL and 0.135 µg/mL and 0.136 µg/mL and 0.145 µg/mL
same,Cmet,"[1]; t 0.5 h, IIMET (metformin alone), individual rats 17-24",0.153 µg/mL and 0.15 µg/mL and 0.313 µg/mL and 0.434 µg/mL and 0.58 µg/mL and 0.179 µg/mL and 0.143 µg/mL and 0.118 µg/mL
same,Cmet,"[1]; t 0.5 h, IMET+OLA (metformin and olaparib), individual rats 9-16",0.305 µg/mL and 0.586 µg/mL and 0.526 µg/mL and 1.222 µg/mL and 0.663 µg/mL and 0.324 µg/mL and 0.506 µg/mL
same,Cmet,"[1]; t 1 h, IIMET (metformin alone), individual rats 17-24",0.174 µg/mL and 0.18 µg/mL and 1.014 µg/mL and 0.544 µg/mL and 0.499 µg/mL and 0.32 µg/mL and 0.159 µg/mL and 0.287 µg/mL
same,Cmet,"[1]; t 1 h, IMET+OLA (metformin and olaparib), individual rats 9-16",0.543 µg/mL and 0.726 µg/mL and 0.856 µg/mL and 1.358 µg/mL and 0.97 µg/mL and 2.359 µg/mL and 0.185 µg/mL and 0.747 µg/mL
same,Cmet,"[1]; t 2 h, IIMET (metformin alone), individual rats 17-24",0.23 µg/mL and 0.17 µg/mL and 0.418 µg/mL and 0.681 µg/mL and 0.209 µg/mL and 0.126 µg/mL and 0.165 µg/mL and 0.28 µg/mL
same,Cmet,"[1]; t 2 h, IMET+OLA (metformin and olaparib), individual rats 9-16",0.528 µg/mL and 0.55 µg/mL and 1.159 µg/mL and 2.443 µg/mL and 1.095 µg/mL and 0.402 µg/mL and 0.242 µg/mL and 0.446 µg/mL
same,Cmet,"[1]; t 4 h, IIMET (metformin alone), individual rats 17-24",0.113 µg/mL and 0.13 µg/mL and 0.27 µg/mL and 0.646 µg/mL and 0.162 µg/mL
same,Cmet,"[1]; t 4 h, IMET+OLA (metformin and olaparib), individual rats 9-16",0.578 µg/mL and 0.585 µg/mL and 1.642 µg/mL and 1.111 µg/mL and 0.694 µg/mL and 0.502 µg/mL and 0.361 µg/mL and 0.396 µg/mL
same,Cmet,"[1]; t 6 h, IMET+OLA (metformin and olaparib), individual rats 9-16",0.469 µg/mL and 0.284 µg/mL and 1.584 µg/mL and 1.082 µg/mL and 0.494 µg/mL and 0.321 µg/mL and 0.41 µg/mL and 0.368 µg/mL
same,Cmet,"[1]; t 8 h, IMET+OLA (metformin and olaparib), individual rats 9-16",0.57 µg/mL and 0.234 µg/mL and 1.165 µg/mL and 0.793 µg/mL and 0.485 µg/mL and 0.275 µg/mL and 0.247 µg/mL and 0.287 µg/mL
same,Cmet,"[1]; t 10 h, IMET+OLA (metformin and olaparib), individual rats 9-16",0.281 ug/ml and 0.155 ug/ml and 0.738 ug/ml and 0.33 ug/ml and 0.444 ug/ml and 0.268 ug/ml (2×) and 0.186 ug/ml
same,Cmet,"[1]; t 24 h, IMET+OLA (metformin and olaparib), individual rats 9-16",0.133 µg/mL and 0.13 µg/mL and 0.334 µg/mL and 0.18 µg/mL and 0.236 µg/mL and 0.141 µg/mL and 0.117 µg/mL and 0.187 µg/mL
same,percentage of late apoptotic cells,[2],8.2%
